Key:
[1] = target: T1, human serotonin 5-HT2A receptor (Homo sapiens, UniProt P28223); experiment: Radioligand binding ([3H]-ketanserin) to membranes of HEK-293 EBNA cells expressing human 5-HT2A receptor; settings: 1.1 nM [3H]-ketanserin, HEK-293 EBNA membranes, 1 h at RT
T1 construct: expressed in transfected cells; host or cells: HEK-293 EBNA cells, transient transfection; membrane preparation
Method in brief: (§1)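 Membranes from HEK-293 EBNA cells transiently transfected with the receptor were incubated 1 h at RT with ten test concentrations (10 μM–0.1 nM) and ~0.7 nM [3H]-spiperone (D2), 0.5 nM [3H]-spiperone (D3) or 1.1 nM [3H]-ketanserin (5-HT2A). Nonspecific binding was set with 10 μM spiperone, bound radioactivity was read by filtration and scintillation, and Ki was taken from IC50 via Cheng-Prusoff.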

[2] = target: T2, human dopamine D3 receptor (Homo sapiens, UniProt P35462); experiment: Radioligand binding ([3H]-spiperone) to membranes of HEK-293 EBNA cells expressing human D3 receptor; settings: human D3, 0.5 nM [3H]-spiperone, HEK-293 EBNA membranes, 1 h at RT
T2 construct: expressed in transfected cells; host or cells: HEK-293 EBNA cells, transient transfection; membrane preparation
T2 sequence (P35462 whole entry): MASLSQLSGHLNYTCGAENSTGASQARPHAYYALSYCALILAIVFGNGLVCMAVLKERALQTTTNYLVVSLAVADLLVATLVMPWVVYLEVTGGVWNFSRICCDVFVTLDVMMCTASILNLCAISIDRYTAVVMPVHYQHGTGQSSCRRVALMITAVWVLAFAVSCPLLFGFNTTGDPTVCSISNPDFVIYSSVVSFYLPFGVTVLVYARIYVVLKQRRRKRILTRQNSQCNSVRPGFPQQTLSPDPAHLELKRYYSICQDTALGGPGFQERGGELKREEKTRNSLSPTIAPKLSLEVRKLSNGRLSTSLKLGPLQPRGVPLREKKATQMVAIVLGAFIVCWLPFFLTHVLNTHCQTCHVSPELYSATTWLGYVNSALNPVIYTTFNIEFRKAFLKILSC
Method in brief: as §1

[3] = target: T3, human dopamine D2 receptor (Homo sapiens, UniProt P14416); experiment: Radioligand binding ([3H]-spiperone) to membranes of HEK-293 EBNA cells expressing human D2 receptor; settings: human D2, 0.7 nM [3H]-spiperone, HEK-293 EBNA membranes, 1 h at RT
T3 construct: expressed in transfected cells; host or cells: HEK-293 EBNA cells, transient transfection; membrane preparation
T3 sequence (P14416 whole entry): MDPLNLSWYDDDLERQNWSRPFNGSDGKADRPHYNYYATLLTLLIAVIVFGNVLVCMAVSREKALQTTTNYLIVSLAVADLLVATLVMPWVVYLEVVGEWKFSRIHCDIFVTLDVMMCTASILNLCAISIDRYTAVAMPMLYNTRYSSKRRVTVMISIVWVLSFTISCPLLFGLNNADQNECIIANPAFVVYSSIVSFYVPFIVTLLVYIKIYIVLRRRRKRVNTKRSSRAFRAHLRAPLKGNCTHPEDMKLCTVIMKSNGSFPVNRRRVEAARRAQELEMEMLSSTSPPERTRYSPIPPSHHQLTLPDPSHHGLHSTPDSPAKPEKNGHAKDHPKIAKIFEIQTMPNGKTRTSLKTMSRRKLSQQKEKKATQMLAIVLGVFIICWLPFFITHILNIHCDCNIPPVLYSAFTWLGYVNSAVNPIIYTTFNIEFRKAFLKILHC
Method in brief: as §1

T1 sequence (P28223 whole entry): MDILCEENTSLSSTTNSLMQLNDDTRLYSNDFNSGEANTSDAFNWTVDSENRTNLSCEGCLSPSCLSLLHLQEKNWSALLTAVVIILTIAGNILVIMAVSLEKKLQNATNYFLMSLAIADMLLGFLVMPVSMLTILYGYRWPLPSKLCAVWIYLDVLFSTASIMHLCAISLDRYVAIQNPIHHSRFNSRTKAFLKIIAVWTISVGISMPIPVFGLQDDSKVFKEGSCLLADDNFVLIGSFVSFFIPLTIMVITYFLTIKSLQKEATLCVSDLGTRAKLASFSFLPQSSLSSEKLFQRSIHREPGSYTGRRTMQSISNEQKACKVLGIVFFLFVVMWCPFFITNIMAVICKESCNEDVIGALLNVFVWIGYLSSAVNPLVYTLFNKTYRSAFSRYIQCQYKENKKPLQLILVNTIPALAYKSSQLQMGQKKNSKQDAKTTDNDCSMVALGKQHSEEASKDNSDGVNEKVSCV

- Ki [1]: 10 nM
- Ki [2]: 53 nM
- Ki [3]: 2270 nM
Structure (SMILES): COC(C)C(=O)N[C@H]1CC[C@H](CCN2CCN(c3noc4cc(F)c(C)cc34)CC2)CC1 (stereo partly drawn) [Example 119, N-trans-(4-{2-[4-(6-Fluoro-5-methyl-benzo[d]isoxazol-3-yl)-piperazin-1-yl]-ethyl}-cyclohexyl)-2-methoxy-propionamide]

From patent US7858630B2, “D3 and 5-HT2A receptor modulators” (Hoffmann-La Roche Inc., priority 2008, dated 2010)
